In ChEMBL document CHEMBL5154659, “A3 adenosine receptor agonists containing dopamine moieties for enhanced interspecies affinity” (Eur J Med Chem, 2022):
Values after ≈ are worked out from the molar mass of the structure shown.

Columns and labels:
Adenosine receptor A3 [1] = biological target: T1, Adenosine receptor A3 (Mus musculus, UniProt Q61618); assay: Displacement of [125I] N6-4-amino-3-iodobenzyl adenosine 5-N-methyluronamide from mouse A3A receptor stably expressed in HEK293 cell membrane by radioligand inhibition assay; assay type: cell membranes
T1 sequence (Q61618 whole entry): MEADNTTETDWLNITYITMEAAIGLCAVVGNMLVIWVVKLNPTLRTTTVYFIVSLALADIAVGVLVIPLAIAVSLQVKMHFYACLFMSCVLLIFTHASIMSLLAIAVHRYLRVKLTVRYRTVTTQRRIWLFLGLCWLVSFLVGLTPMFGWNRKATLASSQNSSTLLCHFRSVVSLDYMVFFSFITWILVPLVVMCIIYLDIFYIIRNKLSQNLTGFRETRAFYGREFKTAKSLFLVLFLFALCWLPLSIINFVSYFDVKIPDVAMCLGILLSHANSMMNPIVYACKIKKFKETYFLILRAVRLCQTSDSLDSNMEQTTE

Adenosine receptor A1 [2] = biological target: T2, Adenosine receptor A1 (Homo sapiens, UniProt P30542); assay: Displacement of [3H] N6-R-phenylisopropyladenosine from human A1A receptor stably expressed in HEK293 cell membrane by radioligand inhibition assay; assay type: cell membranes
T2 sequence (P30542 whole entry): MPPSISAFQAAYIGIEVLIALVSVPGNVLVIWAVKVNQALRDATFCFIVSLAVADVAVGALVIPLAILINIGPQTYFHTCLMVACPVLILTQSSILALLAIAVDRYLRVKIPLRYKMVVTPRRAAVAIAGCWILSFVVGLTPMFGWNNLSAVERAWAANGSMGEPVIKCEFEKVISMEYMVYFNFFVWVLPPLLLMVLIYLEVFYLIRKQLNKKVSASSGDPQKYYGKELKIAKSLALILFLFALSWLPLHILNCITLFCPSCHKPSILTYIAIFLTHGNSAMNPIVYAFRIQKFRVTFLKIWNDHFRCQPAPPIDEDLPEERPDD

Adenosine receptor A2a [3] = biological target: T3, Adenosine receptor A2a (Homo sapiens, UniProt P29274); assay: Binding affinity to human adenosine A2A receptor expressed in human HEK293 cell membrane at 10 uM by radioligand inhibition assay; assay type: cell membranes
T3 sequence (P29274 whole entry): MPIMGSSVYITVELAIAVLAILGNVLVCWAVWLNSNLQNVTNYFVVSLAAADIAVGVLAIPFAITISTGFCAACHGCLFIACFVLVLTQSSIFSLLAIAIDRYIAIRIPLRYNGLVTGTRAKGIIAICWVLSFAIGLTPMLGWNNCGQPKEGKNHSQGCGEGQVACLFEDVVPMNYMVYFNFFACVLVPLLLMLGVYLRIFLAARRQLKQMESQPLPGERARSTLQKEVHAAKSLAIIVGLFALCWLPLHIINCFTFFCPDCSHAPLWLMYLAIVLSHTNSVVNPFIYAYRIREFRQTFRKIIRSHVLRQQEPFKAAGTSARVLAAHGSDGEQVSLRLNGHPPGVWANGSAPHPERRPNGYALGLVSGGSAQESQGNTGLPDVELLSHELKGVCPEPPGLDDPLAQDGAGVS

Adenosine receptor A3 [4] = biological target: T4, Adenosine receptor A3 (Homo sapiens, UniProt P0DMS8); assay: Displacement of [125I] N6-(4-amino-3-iodobenzyl)adenosine-5'-N-methyluronamide from human A3A receptor stably expressed in HEK293 cell membrane by radioligand inhibition assay; assay type: cell membranes
T4 sequence (P0DMS8 whole entry): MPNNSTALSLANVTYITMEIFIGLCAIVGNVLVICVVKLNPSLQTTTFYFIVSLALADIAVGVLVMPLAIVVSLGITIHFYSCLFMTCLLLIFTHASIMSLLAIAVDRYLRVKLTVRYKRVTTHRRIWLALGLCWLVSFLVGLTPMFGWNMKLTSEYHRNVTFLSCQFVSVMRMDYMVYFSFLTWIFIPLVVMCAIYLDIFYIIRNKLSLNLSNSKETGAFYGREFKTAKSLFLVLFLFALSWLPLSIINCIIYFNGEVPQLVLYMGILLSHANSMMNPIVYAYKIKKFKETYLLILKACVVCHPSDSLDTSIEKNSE

Adenosine receptor A1 [5] = biological target: T5, Adenosine receptor A1 (Mus musculus, UniProt Q60612); assay: Displacement of [3H] N6-R-phenylisopropyladenosine from mouse A1A receptor stably expressed in HEK293 cell membrane by radioligand inhibition assay; assay type: cell membranes
T5 sequence (Q60612 whole entry): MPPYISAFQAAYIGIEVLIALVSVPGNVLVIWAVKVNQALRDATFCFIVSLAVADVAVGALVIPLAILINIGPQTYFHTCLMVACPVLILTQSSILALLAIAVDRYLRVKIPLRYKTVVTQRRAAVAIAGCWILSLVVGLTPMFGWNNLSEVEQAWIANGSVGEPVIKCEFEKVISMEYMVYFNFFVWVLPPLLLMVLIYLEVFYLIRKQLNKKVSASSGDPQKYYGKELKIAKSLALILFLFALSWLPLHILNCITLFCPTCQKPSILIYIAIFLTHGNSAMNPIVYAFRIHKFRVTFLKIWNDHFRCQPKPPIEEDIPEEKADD

[6] = biological target: T6, Adenosine receptor A1 (Homo sapiens) (UniProt P30542); assay: Binding affinity to human adenosine A1A receptor expressed in human HEK293 cell membrane at 10 uM by radioligand inhibition assay; assay type: cell membranes
T6 sequence (whole entry): T2 sequence (P30542 whole entry)

Adenosine receptor A3 [7] = biological target: T4, Adenosine receptor A3; assay: Agonist activity at human adenosine A3A receptor stably expressed in HEK293 cells assessed as beta arrestin 2 recruitment potency by luciferase based NanoBiT assay; assay type: functional, cell-based
Adenosine receptor A3 [8] = biological target: T4, Adenosine receptor A3; assay: Agonist activity at human adenosine A3A receptor stably expressed in HEK293 cells assessed as mini G-alpha recruitment potency by luciferase based NanoBiT assay; assay type: functional, cell-based
Adenosine receptor A2a [9] = biological target: T3, Adenosine receptor A2a; assay: Displacement of [3H]-2-p-2-(carboxyethyl)phenyl-ethylamino-5'-N-ethylcarboxamidoadenosine from human A2A receptor stably expressed in HEK293 cell membrane by radioligand inhibition assay; assay type: cell membranes
[10] = Apparent permeability across apical to basolateral side in human Caco-2 cells; assay type: ADME, cell-based
[11] = biological target: Voltage-gated inwardly rectifying potassium channel KCNH2 (Homo sapiens, UniProt Q12809); assay: Inhibition of human ERG; assay type: toxicity
Sequence of Voltage-gated inwardly rectifying potassium channel KCNH2 (Q12809 whole entry): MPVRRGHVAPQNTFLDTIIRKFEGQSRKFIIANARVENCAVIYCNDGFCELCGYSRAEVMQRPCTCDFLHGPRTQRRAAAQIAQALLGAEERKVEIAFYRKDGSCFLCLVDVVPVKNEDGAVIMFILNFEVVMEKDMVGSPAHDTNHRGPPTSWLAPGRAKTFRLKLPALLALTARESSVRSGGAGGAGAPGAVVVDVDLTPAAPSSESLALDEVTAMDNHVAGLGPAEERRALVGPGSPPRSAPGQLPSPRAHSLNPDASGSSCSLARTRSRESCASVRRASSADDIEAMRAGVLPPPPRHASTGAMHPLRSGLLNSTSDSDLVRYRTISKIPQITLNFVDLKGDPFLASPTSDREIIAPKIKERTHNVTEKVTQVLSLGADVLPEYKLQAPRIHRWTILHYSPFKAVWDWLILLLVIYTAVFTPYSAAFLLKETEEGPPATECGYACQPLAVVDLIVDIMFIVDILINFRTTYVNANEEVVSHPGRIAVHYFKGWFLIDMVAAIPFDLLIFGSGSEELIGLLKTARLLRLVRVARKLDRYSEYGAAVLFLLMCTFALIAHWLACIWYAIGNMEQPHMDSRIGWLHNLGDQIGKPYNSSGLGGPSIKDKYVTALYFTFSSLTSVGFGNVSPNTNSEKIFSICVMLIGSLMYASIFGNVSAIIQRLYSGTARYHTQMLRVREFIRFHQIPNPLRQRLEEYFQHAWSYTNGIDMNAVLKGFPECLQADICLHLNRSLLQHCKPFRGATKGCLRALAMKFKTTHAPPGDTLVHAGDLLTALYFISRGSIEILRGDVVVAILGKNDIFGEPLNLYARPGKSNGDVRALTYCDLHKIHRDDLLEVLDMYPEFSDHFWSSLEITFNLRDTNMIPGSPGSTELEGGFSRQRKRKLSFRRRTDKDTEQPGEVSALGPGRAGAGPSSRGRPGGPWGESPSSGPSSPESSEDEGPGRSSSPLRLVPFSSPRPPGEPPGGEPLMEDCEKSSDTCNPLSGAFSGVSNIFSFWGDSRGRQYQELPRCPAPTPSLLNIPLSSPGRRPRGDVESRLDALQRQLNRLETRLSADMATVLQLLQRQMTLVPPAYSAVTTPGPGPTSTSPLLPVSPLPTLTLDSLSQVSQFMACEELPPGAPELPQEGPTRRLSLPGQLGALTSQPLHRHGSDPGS

CYP2D6 = CYP2D6 (Homo sapiens, UniProt P10635); assay: (§1) Inhibition of CYP2D6 (unknown origin); assay type: ADME
Sequence of CYP2D6 (P10635 whole entry): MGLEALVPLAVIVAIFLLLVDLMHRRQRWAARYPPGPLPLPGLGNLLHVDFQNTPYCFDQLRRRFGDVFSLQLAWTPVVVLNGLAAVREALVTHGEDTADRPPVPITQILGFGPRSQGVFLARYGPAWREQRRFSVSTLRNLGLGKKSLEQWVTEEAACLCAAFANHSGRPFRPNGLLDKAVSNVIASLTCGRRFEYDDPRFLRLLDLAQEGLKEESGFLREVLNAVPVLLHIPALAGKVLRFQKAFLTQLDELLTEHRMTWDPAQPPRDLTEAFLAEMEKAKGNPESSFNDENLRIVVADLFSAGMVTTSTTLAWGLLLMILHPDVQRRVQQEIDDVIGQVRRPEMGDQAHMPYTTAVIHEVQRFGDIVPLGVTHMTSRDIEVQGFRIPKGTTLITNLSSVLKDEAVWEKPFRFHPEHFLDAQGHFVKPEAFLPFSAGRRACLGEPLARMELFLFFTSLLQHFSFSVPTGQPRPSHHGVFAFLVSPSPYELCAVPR

[12] = Microsomal stability in Wistar rat plasma assessed as half life; assay type: ADME, cell-free
[13] = Half life in Wistar rat at 0.5 mg/kg, iv; assay type: ADME, organism-based; conditions: in vivo
[14] = Aqueous solubility of compound at pH 7.4; assay type: physicochemical
[15] = Microsomal stability in human plasma assessed as half life; assay type: ADME, cell-free
[16] = Microsomal stability in mouse plasma assessed as half life; assay type: ADME, cell-free
CYP2C19 = CYP2C19 (Homo sapiens, UniProt P33261); assay: (§2) Inhibition of CYP2C19 (unknown origin); assay type: ADME
Sequence of CYP2C19 (P33261 whole entry): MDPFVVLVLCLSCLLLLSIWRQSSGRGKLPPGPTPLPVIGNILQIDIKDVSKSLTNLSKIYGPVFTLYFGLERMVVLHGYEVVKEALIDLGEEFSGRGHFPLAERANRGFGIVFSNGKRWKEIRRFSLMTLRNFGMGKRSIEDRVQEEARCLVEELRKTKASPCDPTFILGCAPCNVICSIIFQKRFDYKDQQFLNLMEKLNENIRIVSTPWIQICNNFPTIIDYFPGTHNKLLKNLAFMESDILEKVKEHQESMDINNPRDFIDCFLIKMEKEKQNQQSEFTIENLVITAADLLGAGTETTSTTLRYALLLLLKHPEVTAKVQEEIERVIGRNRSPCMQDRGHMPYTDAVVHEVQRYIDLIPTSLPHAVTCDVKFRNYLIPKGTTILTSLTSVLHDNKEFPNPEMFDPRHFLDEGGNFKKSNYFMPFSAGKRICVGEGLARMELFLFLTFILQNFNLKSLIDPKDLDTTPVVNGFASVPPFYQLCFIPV

[17] = Stability of the compound in simulated gastric fluid assessed as parent compound remaining at 120 mins; assay type: ADME; conditions: simulated gi fluid, 2 h
Cytochrome P450 2D6 = Cytochrome P450 2D6 (Homo sapiens, UniProt P10635); assay: as §1; assay type: ADME
Sequence of Cytochrome P450 2D6 (P10635 whole entry): as the sequence (P10635 whole entry) above

[18] = Efflux ratio of permeability in human Caco2 cells; assay type: ADME, cell-based; conditions: caco-2
Cytochrome P450 1A2 = biological target: T7, Cytochrome P450 1A2 (Homo sapiens, UniProt P05177); assay: Inhibition of CYP1A2 (unknown origin); assay type: ADME
T7 sequence (P05177 whole entry): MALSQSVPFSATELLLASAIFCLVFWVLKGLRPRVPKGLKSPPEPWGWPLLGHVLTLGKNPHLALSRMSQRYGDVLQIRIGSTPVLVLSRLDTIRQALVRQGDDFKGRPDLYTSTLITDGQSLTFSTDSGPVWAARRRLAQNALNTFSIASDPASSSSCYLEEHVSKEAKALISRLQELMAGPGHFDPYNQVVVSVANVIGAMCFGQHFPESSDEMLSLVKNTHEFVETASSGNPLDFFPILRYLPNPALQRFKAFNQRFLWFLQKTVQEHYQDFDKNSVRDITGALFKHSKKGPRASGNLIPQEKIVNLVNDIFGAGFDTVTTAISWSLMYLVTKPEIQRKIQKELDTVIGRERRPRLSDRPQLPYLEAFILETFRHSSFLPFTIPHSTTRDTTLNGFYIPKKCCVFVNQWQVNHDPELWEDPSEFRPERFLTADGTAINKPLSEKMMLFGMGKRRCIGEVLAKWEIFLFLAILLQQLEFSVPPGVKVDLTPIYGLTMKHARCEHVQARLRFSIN

[19] = Stability in human plasma assessed as parent compound remaining measured after 120 mins; assay type: ADME, cell-free; conditions: 2 h
Cytochrome P450 3A4 = Cytochrome P450 3A4 (Homo sapiens, UniProt P08684); assay: Inhibition of CYP3A4 (unknown origin); assay type: ADME
Sequence of Cytochrome P450 3A4 (P08684 whole entry): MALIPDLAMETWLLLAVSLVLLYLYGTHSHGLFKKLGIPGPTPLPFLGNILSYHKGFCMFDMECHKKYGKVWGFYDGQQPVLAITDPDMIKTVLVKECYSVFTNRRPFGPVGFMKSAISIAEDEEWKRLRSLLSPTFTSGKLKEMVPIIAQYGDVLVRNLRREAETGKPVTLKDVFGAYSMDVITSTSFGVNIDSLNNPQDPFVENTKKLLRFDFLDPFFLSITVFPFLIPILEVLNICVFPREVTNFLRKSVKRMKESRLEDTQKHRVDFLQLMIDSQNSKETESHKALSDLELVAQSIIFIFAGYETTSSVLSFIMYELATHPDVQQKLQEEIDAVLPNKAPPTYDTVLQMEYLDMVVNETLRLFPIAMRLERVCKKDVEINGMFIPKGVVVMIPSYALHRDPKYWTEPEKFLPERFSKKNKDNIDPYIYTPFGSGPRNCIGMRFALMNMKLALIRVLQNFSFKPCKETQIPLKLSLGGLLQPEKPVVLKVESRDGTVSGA

[20] = Oral bioavailability in Wistar rat at 10 mg/kg; assay type: ADME, organism-based; conditions: in vivo
[21] = Stability of the compound in simulated intestinal fluid assessed as parent compound remaining at 120 mins; assay type: ADME; conditions: simulated gi fluid, 2 h
Cytochrome P450 2C9 = Cytochrome P450 2C9 (Homo sapiens, UniProt P11712); assay: Inhibition of CYP2C9 (unknown origin); assay type: ADME
Sequence of Cytochrome P450 2C9 (P11712 whole entry): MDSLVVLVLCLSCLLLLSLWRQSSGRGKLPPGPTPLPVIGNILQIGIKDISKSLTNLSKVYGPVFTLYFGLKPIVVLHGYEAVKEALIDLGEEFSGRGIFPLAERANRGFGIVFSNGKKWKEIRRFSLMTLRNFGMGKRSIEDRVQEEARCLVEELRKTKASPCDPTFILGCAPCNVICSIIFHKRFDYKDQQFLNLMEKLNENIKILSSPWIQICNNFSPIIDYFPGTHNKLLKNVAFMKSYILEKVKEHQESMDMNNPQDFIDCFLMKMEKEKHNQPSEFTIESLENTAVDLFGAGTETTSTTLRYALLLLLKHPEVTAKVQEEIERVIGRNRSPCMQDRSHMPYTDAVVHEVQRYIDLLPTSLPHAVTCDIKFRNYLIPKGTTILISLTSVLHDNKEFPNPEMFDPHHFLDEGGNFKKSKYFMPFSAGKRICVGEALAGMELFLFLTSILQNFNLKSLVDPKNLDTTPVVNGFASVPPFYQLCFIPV

[22] = Stability in Wistar rat plasma assessed as parent compound remaining measured after 120 mins; assay type: ADME, cell-free; conditions: 2 h
Cytochrome P450 2C19 = Cytochrome P450 2C19 (Homo sapiens, UniProt P33261); assay: as §2; assay type: ADME
Sequence of Cytochrome P450 2C19 (P33261 whole entry): as the sequence (P33261 whole entry) above

[23] = Stability in mouse plasma assessed as parent compound remaining measured after 120 mins; assay type: ADME, cell-free; conditions: 2 h
[24] = Oral bioavailability in Wistar rat at 3 mg/kg; assay type: ADME, organism-based; conditions: in vivo

SMILES	Ki (Adenosine receptor A3 [1])	inhibition (Adenosine receptor A2a [3])	Ki (Adenosine receptor A3 [4])	Ki (Adenosine receptor A1 [5])	inhibition [6]	Ki (Adenosine receptor A2a [9])	IC50 [11]	half-life [12]	half-life [13]	half-life [15]	half-life [16]	Stability [17]	IC50 (Cytochrome P450 2D6)	IC50 (Cytochrome P450 1A2)	Stability [19]	IC50 (Cytochrome P450 3A4)	Stability [21]	solubility ([14]; buffer)	IC50 (Cytochrome P450 2C9)	Stability [22]	further results
CNC(=O)[C@@]12C[C@@H]1[C@@H](n1cnc3c(NCCc4ccccc4)nc(I)nc31)[C@H](O)[C@@H]2O	0.00169 µM	39%	0.00448 µM	0.272 µM																	Ki (Adenosine receptor A1 [2]): 0.574 µM
CNC(=O)[C@@]12C[C@@H]1[C@@H](n1cnc3c(NCCc4ccc(OC)c(O)c4)nc(OC)nc31)[C@H](O)[C@@H]2O	0.00543 µM		0.00389 µM		59%	10.2 µM															EC50 (Adenosine receptor A3 [7]): 0.0502 µM; EC50 (Adenosine receptor A3 [8]): 0.0385 µM
COc1cc(CCNc2nc(C#Cc3ccccc3)nc3c2ncn3[C@H]2[C@H](O)[C@H](O)[C@@H]3C[C@@H]32)ccc1O							5.39 µM	15.7 min	16.4 min	16.3 min	7.92 min										Papp A→B [10]: 2.71 ×10⁻⁶ cm/s; IC50 (CYP2D6): > 30 µM; solubility ([14]; aqueous, read-out: solubility): 13 µg/mL (≈ 26.1 µM); IC50 (CYP2C19): > 30 µM
CNC(=O)[C@@]12C[C@@H]1[C@@H](n1cnc3c(NCCc4ccc(OC)c(OC)c4)nc(C#Cc4ccc(Cl)s4)nc31)[C@H](O)[C@@H]2O	0.00221 µM	16%	0.00867 µM	7.05 µM	0%		3.65 µM	11.5 min	43.9 min	2 min	6.72 min	100%	17.7 µM	0.43 µM	100%	0.78 µM	100%	3.84 µg/mL (≈ 6.3 µM)	> 30 µM	100%	Papp [10]: 0.44 10^-6 cm/s; Ratio [18]: 46.6; bioavailability [20]: 1.88%; IC50 (Cytochrome P450 2C19): 15.1 µM; Stability [23]: 100%
CNC(=O)[C@@]12C[C@@H]1[C@@H](n1cnc3c(NCCc4ccc(OC)c(O)c4)nc(OCC(C)C)nc31)[C@H](O)[C@@H]2O	0.0176 µM			0.317 µM		0.588 µM	16.5 µM	22.5 min	101 min	6.51 min	9.15 min	100%	> 30 µM	0.25 µM	56.9%	0.83 µM	64.5%	167 µg/mL (≈ 317 µM)	> 30 µM	84.6%	bioavailability [24]: 4.34%; IC50 (Cytochrome P450 2C19): > 30 µM; Stability [23]: 94.6%
